Reference: PMC10247784, “Physiological activation of human and mouse bitter taste receptors by bile acids” (Communications Biology, 2023)
Values joined by “and” are separate entries in the source; they are usually repeats but may differ in a detail not shown here. Equal values may be shown once.

Molecular target: T1, human TAS2R1 (Homo sapiens, UniProt Q9NYW7)
T1 construct: expressed in transfected cells; host or cells: HEK293T-Gα16gust44
T1 sequence (Q9NYW7 1-299): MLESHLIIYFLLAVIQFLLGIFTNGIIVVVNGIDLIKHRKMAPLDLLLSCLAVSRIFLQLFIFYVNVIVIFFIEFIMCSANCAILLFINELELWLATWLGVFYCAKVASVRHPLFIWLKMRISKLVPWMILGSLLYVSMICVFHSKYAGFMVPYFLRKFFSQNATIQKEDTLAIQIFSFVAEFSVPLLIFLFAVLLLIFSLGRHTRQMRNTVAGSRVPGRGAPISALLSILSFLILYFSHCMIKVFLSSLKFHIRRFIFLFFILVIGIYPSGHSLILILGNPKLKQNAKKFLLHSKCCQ
Experiment: Calcium imaging assay (FLIPR), HEK293T-Gα16gust44 cells transfected with human TAS2R1
Type: cell-based
Method: This set of bile acids was chosen because of their commercial availability in high purities, their diversity within the class of bile acids and their previous detection and quantitation in human blood. Stock solutions were prepared in DMSO.
As basal growth medium for the HEK293T-Gα16gust44 cell line[17],[59] served Dulbecco’s modified eagle medium (DMEM) (Thermo Fisher Scientific, Darmstadt, Germany) supplemented with 10 % fetal bovine serum (Sigma-Aldrich, Steinheim, Germany), 2 mM L-glutamine (Sigma-Aldrich, Steinheim, Germany), 100 units/ml penicillin (Sigma Aldrich, Steinheim, Germany) and 100 µg/ml streptomycin (Sigma Aldrich, Steinheim, Germany). Growth conditions were 37 °C, 5 % CO2 and saturated air-humidity[60].
HEK293T-Gα16gust44 cells were seeded on poly-D-lysine (10 µg/ml) coated 96-well plates to reach a confluence of 40-60 % the next day. For transient transfection 150 ng of plasmid DNA containing the receptor of interest and 0.3 µl lipofectamine 2000 (Thermo Fisher Scientific, Darmstadt, Germany) per well were used and transfection took place according to the manual of lipofectamine 2000. […] The empty vector DNA (mock) was transfected as negative control[14],[41].
Cells were loaded using the calcium-sensitive fluorescent dye Fluo-4-AM (Abcam, Cambridge, Great Britain) in the presence of 2.5 mM probenecid (Sigma-Aldrich, Steinheim, Germany) the day after transfection[13],[41]. 1 h after loading, cells were washed with C1 buffer using a BioTek Cell Washer, incubated in the dark for half an hour and washed again. For automated agonist application and measurement of fluorescence changes, a FLIPR^TETRA device (Molecular Devices, San José, United States) was used. Viability of cells was tested by application of 100 nM Somatostatin 14 (Bachem, Bubendorf, Switzerland)[42].
Measured data were negative control corrected by subtracting the signal of the mock-transfected cells and exported to Microsoft Excel using the FLIPR software ScreenWorks 4.2. In Microsoft Excel software, standardization of maximum fluorescence intensities to the basal fluorescence and normalization to the buffer-only control was done to calculate the relative fluorescence changes (ΔF/F).
Initial screening experiments performed in duplicate wells were confirmed by at least one replication and representative traces were selected for display. All dose-response relationships were determined by three independent experiments (biological replicates) performed in duplicates (technical replicates). Threshold concentrations, defined as lowest substance concentrations leading to statistically significant elevated fluorescence changes in receptor-transfected cells compared with empty vector-transfected cells, were determined using SigmaPlot with Student’s t-test to evaluate statistical significance (p < 0.01).

- Efficacy = maximal amplitude (ΔF/F) (TAS2R1, bile acids, mean): 0.1325
- Efficacy (maximal amplitude ΔF/F), individual data points (TAS2R1, bile acids, single replicates, listed as GCA): 0.1311 and 0.1247 and 0.1416
- RLU (Time 0 s (second time grid)): 0 RLU
- RLU (Time 2 s): 1.34 RLU
- RLU (Time 4 s): -10.9328 RLU
- RLU (Time 6 s): -2.093 RLU
- RLU (Time 8 s): -18.797 RLU
- RLU (Time 12 s): -1.765 RLU
- RLU (Time 14 s): -6.3 RLU
- RLU (Time 16 s): 4.111 RLU
- RLU (Time 18 s): 11.3452 RLU
- RLU (Time 18.781 s): -8.381 RLU
- RLU (Time 20.781 s): -65.4734 RLU
- RLU (Time 22.781 s): -29.3432 RLU
- RLU (Time 24.781 s): 49.9011 RLU
- RLU (Time 26.781 s): 96.1968 RLU
- RLU (Time 28.781 s): 184.074 RLU
- RLU (Time 30.781 s): 256.685 RLU
- RLU (Time 32.781 s): 311.082 RLU
- RLU (Time 34.781 s): 379.127 RLU
- RLU (Time 36.781 s): 406.227 RLU
- RLU (Time 38.781 s): 484.171 RLU
- RLU (Time 40.781 s): 488.749 RLU
- RLU (Time 42.781 s): 562.235 RLU
- RLU (Time 44.781 s): 571.006 RLU
- RLU (Time 46.781 s): 594.154 RLU
- RLU (Time 48.781 s): 570.694 RLU
- RLU (Time 50.781 s): 587.34 RLU
- RLU (Time 52.781 s): 583.343 RLU
- RLU (Time 54.781 s): 607.705 RLU
- RLU (Time 56.781 s): 600.065 RLU
- RLU (Time 58.781 s): 617.139 RLU
- RLU (Time 60.781 s): 617.101 RLU
- RLU (Time 62.781 s): 619.569 RLU
- RLU (Time 64.781 s): 627.557 RLU
- RLU (Time 66.781 s): 602.719 RLU
- RLU (Time 68.781 s): 631.839 RLU
- RLU (Time 70.781 s): 609.358 RLU
- RLU (Time 72.781 s): 606.454 RLU
- RLU (Time 74.781 s): 603.445 RLU
- RLU (Time 76.781 s): 621.396 RLU
- RLU (Time 78.781 s): 618.749 RLU
- RLU (Time 80.781 s): 605.728 RLU
- RLU (Time 82.781 s): 588.632 RLU
- RLU (Time 84.781 s): 592.001 RLU
- RLU (Time 86.781 s): 573.367 RLU
- RLU (Time 88.781 s): 587.481 RLU
- RLU (Time 90.781 s): 582.427 RLU
- RLU (Time 92.781 s): 543.758 RLU
- RLU (Time 94.781 s): 568.088 RLU
- RLU (Time 96.781 s): 550.308 RLU
- RLU (Time 98.781 s): 566.578 RLU
- RLU (Time 100.781 s): 550.017 RLU
- RLU (Time 102.781 s): 549.55 RLU
- RLU (Time 104.781 s): 541.673 RLU
- RLU (Time 106.781 s): 534.917 RLU
- RLU (Time 108.781 s): 501.47 RLU
- RLU (Time 110.781 s): 477.052 RLU
- RLU (Time 112.781 s): 487.765 RLU
- RLU (Time 114.781 s): 493.52 RLU
- RLU (Time 116.781 s): 450.802 RLU
- RLU (Time 118.781 s): 454.358 RLU
- RLU (Time 120.781 s): 451.439 RLU
- RLU (Time 122.781 s): 430.145 RLU
- RLU (Time 124.781 s): 453.415 RLU
- RLU (Time 126.781 s): 442.632 RLU
- RLU (Time 128.781 s): 400.74 RLU
- RLU (Time 130.781 s): 403.872 RLU
- RLU (Time 132.781 s): 393.75 RLU
- RLU (Time 134.781 s): 397.711 RLU
- RLU (Time 136.781 s): 397.074 RLU
- RLU (Time 137.547 s): 371.152 RLU
- RLU (Time 143.547 s): 348.952 RLU
- RLU (Time 149.547 s): 319.38 RLU
- RLU (Time 155.547 s): 291.839 RLU
- RLU (Time 161.547 s): 291.362 RLU
- RLU (Time 167.547 s): 251.037 RLU
- RLU (Time 173.547 s): 217.997 RLU
- RLU (Time 179.547 s): 213.168 RLU
- RLU (Time 185.547 s): 202.093 RLU
- RLU (Time 191.547 s): 176.088 RLU
- RLU (Time 197.547 s): 167.876 RLU
- RLU (Time 203.547 s): 164.283 RLU
- RLU (Time 209.547 s): 146.788 RLU
- RLU (Time 215.547 s): 144.843 RLU
- RLU (Time 221.547 s): 126.114 RLU
- RLU (Time 227.547 s): 89.1702 RLU
- RLU (Time 233.547 s): 107.472 RLU
- RLU (Time 239.547 s): 82.2731 RLU
- RLU (Time 245.547 s): 57.4201 RLU
- RLU (Time 293.547 s): 58.9267 RLU
- RLU (Time 299.547 s): 40.6004 RLU
- RLU (calcium trace, sheet TAS2R1, Time 305.547 s): 58.5113 RLU
- RLU (calcium trace, sheet TAS2R1, Time 311.547 s): 53.2069 RLU
- RLU (calcium trace, sheet TAS2R1, Time 317.547 s): 43.3091 RLU
- RLU (calcium trace, sheet TAS2R1, Time 323.547 s): 43.6147 RLU
- RLU (calcium trace, sheet TAS2R1, Time 329.547 s): 33.081 RLU
- RLU (calcium trace, sheet TAS2R1, Time 335.547 s): 47.1496 RLU
- RLU (calcium trace, sheet TAS2R1, Time 341.547 s): 32.1596 RLU
- RLU (calcium trace, sheet TAS2R1, Time 347.547 s): 48.6454 RLU
- RLU (calcium trace, sheet TAS2R1, Time 353.547 s): 51.461 RLU
- RLU (calcium trace, sheet TAS2R1, Time 359.547 s): 49.6251 RLU
- Δ F/F (conc. 0,01 mM, TAS2R1): 0.004283
- Δ F/F (conc. 0,1 mM, TAS2R1): 0.04907
- Δ F/F (conc. 0,03 mM, TAS2R1): 0.009584
- Δ F/F (conc. 0,3 mM, TAS2R1): 0.1325
- Δ F/F (conc. 0,001 mM, TAS2R1): 0.006338
- Δ F/F (conc. 0,003 mM, TAS2R1): -0.001187
- Activation threshold concentration TAS2R1 (lowest concentration with significantly increased fluorescence vs empty vector (p < 0.01)): 100 µM and 100.00 µM
SMILES: C[C@H](CCC(=O)NCC(=O)O)[C@H]1CC[C@H]2[C@@H]3[C@H](O)C[C@@H]4C[C@H](O)CC[C@]4(C)[C@H]3C[C@H](O)[C@]12C [Glycocholic Acid, glycocholic acid]
